These results are taken from patent US20200291018A1, “TAM KINASE INHIBITORS” (SYROS PHARMACEUTICALS, INC., priority 2017, published 2020).

For assay [1], the target named is T1, FLT3 (Homo sapiens, UniProt P36888).
T1 sequence (P36888 27-993): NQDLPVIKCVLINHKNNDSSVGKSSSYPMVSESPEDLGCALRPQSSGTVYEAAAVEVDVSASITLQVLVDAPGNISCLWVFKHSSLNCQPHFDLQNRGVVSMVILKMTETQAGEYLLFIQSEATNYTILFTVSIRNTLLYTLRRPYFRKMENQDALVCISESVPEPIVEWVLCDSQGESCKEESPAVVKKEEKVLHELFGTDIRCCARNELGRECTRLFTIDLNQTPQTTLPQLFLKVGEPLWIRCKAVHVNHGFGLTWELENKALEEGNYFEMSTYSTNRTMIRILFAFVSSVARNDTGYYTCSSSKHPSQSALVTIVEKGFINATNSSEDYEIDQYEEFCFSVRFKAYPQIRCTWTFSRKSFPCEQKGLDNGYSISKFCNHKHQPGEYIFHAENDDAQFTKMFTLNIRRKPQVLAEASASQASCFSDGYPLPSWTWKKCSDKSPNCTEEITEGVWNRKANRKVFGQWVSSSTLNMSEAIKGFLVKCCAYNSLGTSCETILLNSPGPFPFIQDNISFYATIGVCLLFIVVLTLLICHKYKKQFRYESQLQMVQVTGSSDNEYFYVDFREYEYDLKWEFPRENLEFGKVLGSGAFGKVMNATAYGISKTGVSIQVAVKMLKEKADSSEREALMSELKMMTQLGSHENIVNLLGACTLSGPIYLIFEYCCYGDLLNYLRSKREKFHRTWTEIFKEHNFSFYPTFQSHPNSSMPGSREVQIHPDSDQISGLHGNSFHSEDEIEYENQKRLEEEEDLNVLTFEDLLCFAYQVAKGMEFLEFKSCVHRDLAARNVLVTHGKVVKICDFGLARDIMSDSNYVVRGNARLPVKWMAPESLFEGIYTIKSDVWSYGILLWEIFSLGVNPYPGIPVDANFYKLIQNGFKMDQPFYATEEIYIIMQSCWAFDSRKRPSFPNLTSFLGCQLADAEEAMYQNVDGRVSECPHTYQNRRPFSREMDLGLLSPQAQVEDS
Kind of assay: TR-FRET kinase activity assay, FLT3. In kind it is biochemical. The note with it: ATP at Km, 60 minutes. As for the experimental part: (§1) IC50 values for compound inhibition of AXL, FLT3, MERTK and TYRO3 activity were determined using a TR-FRET activity assay. A peptide substrate with a fluorescent label is phosphorylated on a tyrosine by each enzyme, where the now phosphorylated product is bound by a Europium-labeled antibody specific to that phosphorylation site. The proximity between the antibody and the substrate gives a signal known as TR-FRET. As the enzyme is inhibited by compound, less phosphorylated peptide product is made, causing a decrease in overall signal.
(§2) Activity assays were performed in a 384-well, small volume, black microplates in an active enzyme volume of 10 uL and final developed volume of 20 uL. Final assay conditions are 50 mM HEPES pH 7.5, 10 mM MgCl2, 1 mM EGTA, 0.01% Brij 35 and 1 mM DTT, all at RT. Enzyme, substrate-labeled peptide and compound are mixed, and then the reaction is initiated with the addition of ATP at Km concentration for each enzyme. The reaction is allowed to run 60 minutes and then quenched with a 12.5 mM EDTA (ethylenediamine tetraacetic acid) solution. The plate is then developed with the addition of Europium-labeled antibody for a final volume of 20 uL and is then incubated for 30 minutes in darkness. Plates are read in a PHERASTAR® plate reader. Data are analyzed in GraphPad PRISM.

The target in assay [2] is T2, TYRO3 (Homo sapiens, UniProt Q06418).
T2 sequence (Q06418 41-890): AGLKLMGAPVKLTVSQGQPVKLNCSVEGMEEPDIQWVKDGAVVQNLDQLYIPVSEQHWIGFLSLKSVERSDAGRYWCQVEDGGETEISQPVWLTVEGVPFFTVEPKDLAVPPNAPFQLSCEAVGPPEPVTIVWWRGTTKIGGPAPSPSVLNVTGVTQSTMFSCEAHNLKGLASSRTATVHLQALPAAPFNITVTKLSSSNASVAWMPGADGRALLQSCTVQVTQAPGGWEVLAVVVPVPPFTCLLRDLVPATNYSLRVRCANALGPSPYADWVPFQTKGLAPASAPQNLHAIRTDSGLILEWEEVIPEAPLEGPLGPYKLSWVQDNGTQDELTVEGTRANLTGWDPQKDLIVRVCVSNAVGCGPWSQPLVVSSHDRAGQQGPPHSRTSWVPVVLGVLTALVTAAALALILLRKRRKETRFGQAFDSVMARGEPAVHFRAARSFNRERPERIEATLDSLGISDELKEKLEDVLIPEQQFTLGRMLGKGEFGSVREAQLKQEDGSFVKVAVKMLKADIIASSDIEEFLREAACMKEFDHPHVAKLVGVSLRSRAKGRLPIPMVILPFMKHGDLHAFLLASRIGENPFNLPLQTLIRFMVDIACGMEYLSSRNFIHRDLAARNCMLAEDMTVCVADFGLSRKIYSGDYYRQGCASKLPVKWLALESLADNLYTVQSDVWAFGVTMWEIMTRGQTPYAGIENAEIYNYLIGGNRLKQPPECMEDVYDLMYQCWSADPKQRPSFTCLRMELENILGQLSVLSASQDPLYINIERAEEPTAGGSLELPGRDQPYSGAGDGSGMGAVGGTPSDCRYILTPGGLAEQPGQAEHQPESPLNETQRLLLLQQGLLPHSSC
Kind of assay: TR-FRET kinase activity assay, TYRO3. Type of assay: biochemical. The note with it: ATP at Km, 60 minutes. As for the experimental part:
as §1, §2
Background: In TR-FRET formats the signal depends on donor and acceptor labels being close together.

For orientation: pIC50 means the negative decadic logarithm of the IC50, by convention in mol/L. A higher pIC50 goes with a low IC50.

Molecules are shown by their SMILES. pIC50: −log10 of the molar value. Some results are limits rather than exact numbers.

For `CC[C@H](C)Nc1ncc2c(OC3CC(C)(C)N(C)C(C)(C)C3)ncc([C@H]3CC[C@H](O)CC3)c2n1` [Compound 227], the values for the negative logarithm of the IC50 (pIC50) in assay [1] and in assay [2] were 6.00 to 7.00 and at least 7.00, respectively.

Regarding `CCC(CC)Nc1ncc2c(OC3CCNCC3)ncc([C@H]3CC[C@H](O)CC3)c2n1` [Compound 228], the pIC50 was 5.00 to 6.00 in assay [1] and 6.00 to 7.00 in assay [2].

Consider `CC[C@H](C)Nc1ncc2c(O[C@H]3CC[C@H](O)CC3)ncc([C@H]3CC[C@H](O)CC3)c2n1` [Compound 229], for which the pIC50 in assay [1] and in assay [2] was 6.00 to 7.00 in each case.

As to `CC[C@H](C)Nc1ncc2c(Cl)ncc([C@H]3CC[C@H](O)CC3)c2n1` [Compound 230], the negative-log IC50 (pIC50) in assay [1] is 5.00 to 6.00; in assay [2], 6.00 to 7.00.

Turning to `CC[C@H](C)NC1=NC2C([C@H]3CC[C@H](O)CC3)=CN(C(C)C)C(=O)C2C=N1` (stereo partly drawn) [Compound 231], the pIC50 is 5.00 to 6.00 in assay [1] and at least 7.00 in assay [2].

Take `O[C@H]1CC[C@H](c2cnc(OC3CCNCC3)c3cnc(N[C@@H]4CCCOC4)nc32)CC1` [Compound 232]: the negative logarithm of the IC50 (pIC50) in assay [1] and in assay [2] was 6.00 to 7.00 throughout.

As to `CC[C@H](C)Nc1ncc2c(OC3CCN(S(C)(=O)=O)CC3)ncc([C@H]3CC[C@H](O)CC3)c2n1` [Compound 233], the pIC50 is 6.00 to 7.00 in assay [1] and at least 7.00 in assay [2].

In the case of `CC[C@H](C)Nc1ncc2c(=O)n(C3CCN(S(C)(=O)=O)CC3)cc([C@H]3CC[C@H](O)CC3)c2n1` [Compound 234], the pIC50 in assay [1] is 5.00 to 6.00; in assay [2], at least 7.00.

In the case of `CCOc1ncc([C@H]2CC[C@H](O)CC2)c2nc(N[C@@H](C)CC)ncc12` [Compound 235], the pIC50 in assay [1] is 6.00 to 7.00; in assay [2] it was at least 7.00.

For the compound `CCOc1ncc(CC2CCNCC2)c2nc(N[C@@H](C)CC)ncc12` [Compound 236], the pIC50 in assay [1] and in assay [2] was 6.00 to 7.00 in each case.

Consider `CC[C@H](C)Nc1ncc2c(OC3C[C@H]4CC[C@@H](C3)O4)ncc([C@H]3CC[C@H](O)CC3)c2n1` (stereo partly drawn) [Compound 237], for which the pIC50 in assay [1] and in assay [2] was 5.00 to 6.00 throughout.

Turning to `CC[C@H](C)Nc1ncc2c(NC34CCC(O)(CC3)CC4)ncc([C@H]3CC[C@H](O)CC3)c2n1` [Compound 238], the pIC50 in assay [1] was 6.00 to 7.00; in assay [2], 5.00 to 6.00.

`CC[C@H](C)Nc1ncc2c(OC3CCN(C)CC3)ncc([C@H]3CC[C@H](O)CC3)c2n1` [Compound 239]: the negative-log IC50 (pIC50) was 5.00 to 6.00 in assay [1] and at least 7.00 in assay [2].

Consider `CC[C@H](C)Nc1ncc2c(C3CCN(C)CC3)ncc([C@H]3CC[C@H](O)CC3)c2n1` [Compound 240], for which the pIC50 in assay [1] was 5.00 to 6.00; in assay [2], 6.00 to 7.00.

For `CC[C@H](C)Nc1ncc2c(OC(CO)CO)ncc([C@H]3CC[C@H](O)CC3)c2n1` [Compound 241], the pIC50 in assay [1] is 5.00 to 6.00; in assay [2] it was at least 7.00.

For the compound `COC[C@H](C)Nc1ncc2c(OC3CCOCC3)ncc(C3=CCC4(CC3)OCCO4)c2n1` [Compound 242], the figures for the pIC50 in assay [1] and in assay [2] were 5.00 to 6.00 and 6.00 to 7.00, respectively.

Consider `COC[C@H](C)Nc1ncc2c(OC3CCOCC3)ncc(C3CCC4(CC3)OCCO4)c2n1` [Compound 243], for which the pIC50 in assay [1] and in assay [2] was 5.00 to 6.00 each time.

Take `CCc1ncc([C@H]2CC[C@H](O)CC2)c2nc(N[C@@H](C)CC)ncc12` [Compound 244]: the negative logarithm of the IC50 (pIC50) in assay [1] and in assay [2] was 5.00 to 6.00 in each case.

As for `CC[C@H](C)Nc1ncc2c(OCC(F)(F)F)ncc([C@H]3CC[C@H](O)CC3)c2n1` [Compound 245], the pIC50 was 6.00 to 7.00 in assay [1] and at least 7.00 in assay [2].

Turning to `CC[C@H](C)Nc1ncc2c(OC3CC(C)(C)NC(C)(C)C3)ncc([C@H]3CC[C@H](O)CC3)c2n1` [Compound 246], the pIC50 was 5.00 to 6.00 in assay [1] and at least 7.00 in assay [2].

For the compound `CC[C@H](C)Nc1ncc2c(OC3C[C@@H](C)O[C@@H](C)C3)ncc([C@H]3CC[C@H](O)CC3)c2n1` (stereo partly drawn) [Compound 247], the pIC50 is 5.00 to 6.00 in assay [1] and 6.00 to 7.00 in assay [2].
